The structures appear in SMILES notation.

For this experiment, the system named is Ctenocephalides felis. As to the kind of experiment: In vitro evaluation of contact activity against adult cat fleas. The conditions noted are these: adult fleas in coated glass vial, after 48 h. On the procedure:
In vitro contact tests with […] are conducted with adult males and females of Ctenocephalides felis. For the coating of the test vials, the test substance is dissolved and diluted in acetone p.a. to the desired concentration. The solution is then homogeneously applied to the inner walls and base of a glass vial by turning and rocking on an orbital shaker until complete evaporation of the solvent. For example, with 900 ppm solution of test substance an area-based dose of 5 μg/cm^2 is achieved.
After the solvent is completely evaporated, approximately 10 adult fleas are applied to each coated test vial, which is then sealed with a perforated plastic lid and incubated in a horizontal position in the dark at room temperature and ambient humidity. Insecticidal activity is determined after 48 h. Fleas which remain motionless on the base of the test vial or move uncoordinated without occasionally jumping or walking straight are considered dead or moribund, respectively. An insecticidal activity of 100% means all fleas were dead or moribund. An insecticidal activity of 0% means none of the fleas was affected. From a dose response curve the respective EC50 was calculated (4-parameter logistic curve fitting).

For `Cc1cc(C2=NOC(c3cc(C(F)(F)F)cc(C(F)(F)F)c3F)(C(F)(F)F)C2)ccc1C(=O)NCC(=O)NCC(F)(F)F` (single isomer, unassigned) [Example 3.1], the “EC50 insecticidal activity (fleas dead or moribund)” value was < 0.05 μg/cm^2.

These data come from patent US20240287005A1, “ISOXAZOLINE PESTICIDES” (Elanco Tiergesundheit AG, priority 2021, published 2024).
